Laboratory results as given in US10501805B2, “Methods for determining responsiveness to MEK/ERK inhibitors” (CROWN BIOSCIENCE, INC. (TAICANG), priority 2014, dated 2019).

How the values were obtained:
Experiment in all cases: CellTiter-Glo cell viability, IC50 determination
Format in all cases: cell-based
NCI-H1792 = settings: Homo sapiens, 72 h; NCI-H1792 cell line; 3-day CTG assay; read-out: Absolute IC50
Description: (§1) All the cells will be cultured in the media supplemented with 10% FBS except for which are marked specially, in the temperature of 37° C., 5% CO2 and 95% humidity.
(§2) Cell viability is assayed by using CellTiter-Glo® Luminescent Cell Viability Assay Kit (Cat. No.: G7572, Promega. Store at −20° C.). To prepare the CellTiter_Glo Reagent, the CellTiter-Glo Buffer was thawed and equilibrated to room temperature prior to use. For convenience the CellTiter-Glo Buffer may be thawed and stored at room temperature for up to 48 hours prior to use. The lyophilized CellTiter-Glo Substrate is equilibrated to room temperature prior to use. The appropriate volume (100 ml) of CellTiter-Glo Buffer is transferred into the amber bottle containing CellTiter-Glo Substrate to reconstitute the lyophilized enzyme/substrate mixture, which forms the CellTiter-Glo Reagent. In certain cases, the entire liquid volume of the CellTiter-Glo Buffer bottle may be added to the CellTiter-Glo Substrate vial. Mix by gently vortexing, swirling or by inverting the contents to obtain a homogeneous solution. The CellTiter-Glo Substrate should go into solution easily in less than one minute.
(§3) The day before the experiment (Day −1), cells were dissociated during the logarithmic growth period with Cell Disassociation Buffer (Gibco 13151-014) and mixed with appropriate cell media and centrifuge at 1000 rpm for 3 minutes. The cells were re-suspended and counted using Countstar before adjusting cell concentrations to optimized density (i.e. 4.44×10^4 cells/ml) with respective culture medium listed in Table 1 for 3-day CTG assay (The cell density was optimized before actual study; cell density used in the test may vary for different cell lines). 90 μl cell suspensions were added to two 96-well plates (plates A and B) with the final cell density of 4×10^3 cells/well for 3-day CTG assay (the cell density was optimized before actual study; cell density used in the test may vary for different cell lines). The plate A and B group were incubated for overnight in humidified incubator at 37° C. with 5% CO2.
(§4) On Day 0, for plate A group, 10 μl culture medium was added to each well for T0 reading. CellTiter-Glo® Reagent was added at equal volume of cell culture medium present in each well (e.g., add 100 μl of reagent to 100 μl of medium containing cells for a 96-well plate). Contents were mixed for 2 minutes on an orbital shaker to facilitate cell lysis. The plate was allowed to incubate at room temperature for 10 minutes to stabilize luminescent signal. Backseal black sticker was added to the bottom of each plate. Luminescence was recorded using EnVision Multi Label Reader. This formed the basis for T0 value.
(§5) On Day 0, the test articles and positive controls were dissolved at the concentration indicated at Test Article Dilution map. 100× solution in PBS was prepared and then diluted with appropriate culture media (1:10) into 10×working solutions. 10 μl (10×) drug solutions were dispensed in each well (triplicate for each drug concentration) of the plate B group according to plate inoculation map. The test plates were incubated for […] in the humidified incubator at 37° with 5% CO2.
(§6) On Day 3, CellTiter-Glo® Reagent was added at equal volume of cell culture medium present in each well (e.g., add 100 μl of reagent to 100 μl of medium containing cells for a 96-well plate). Contents were mixed for 2 minutes on an orbital shaker to induce cell lysis. The plate was allowed to incubate at room temperature for 10 minutes to stabilize luminescent signal. Backseal black sticker was placed to the bottom of each plate. Luminescence was recorded using EnVision Multi Label Reader.
(§7) In order to calculate IC50s, a dose-response curve was fitted using a nonlinear regression model with a sigmoidal dose response. The formula for calculating surviving rate was shown below; Absolute IC50 is calculated where Y axis set at 50% using GraphPad Prism 5.0. Software. […]

LoVo = settings: Homo sapiens, 72 h; LoVo cell line; 3-day CTG assay; read-out: Absolute IC50
Description: as §1, §2, §3, §4, §5, §6, §7

NCI-H1651 = settings: Homo sapiens, 72 h; NCI-H1651 cell line; 3-day CTG assay; read-out: Absolute IC50
Description: as §1, §2, §3, §4, §5, §6, §7

HepG2 = settings: Homo sapiens, 72 h; HepG2 cell line; 3-day CTG assay; read-out: Absolute IC50
Description: as §1, §2, §3, §4, §5, §6, §7

PC-3 = settings: Homo sapiens, 72 h; PC-3 cell line; 3-day CTG assay; read-out: Absolute IC50
Description: as §1, §2, §3, §4, §5, §6, §7

HCT-8 = settings: Homo sapiens, 72 h; HCT-8 cell line; 3-day CTG assay; read-out: Absolute IC50
Description: as §1, §2, §3, §4, §5, §6, §7

SK-LU-1 = settings: Homo sapiens, 72 h; SK-LU-1 cell line; 3-day CTG assay; read-out: Absolute IC50
Description: as §1, §2, §3, §4, §5, §6, §7

NCI-H2227 = settings: 72 h; NCI-H2227 cell line; 3-day CTG assay; read-out: Absolute IC50
Description: as §1, §2, §3, §4, §5, §6, §7

HT1376 = settings: Homo sapiens, HT-1376, 72 h; HT1376 cell line; 3-day CTG assay; read-out: Absolute IC50
Description: as §1, §2, §3, §4, §5, §6, §7

Hep3B = settings: Homo sapiens, 72 h; Hep3B cell line; 3-day CTG assay; read-out: Absolute IC50
Description: as §1, §2, §3, §4, §5, §6, §7

NCI-H2009 = settings: Homo sapiens, 72 h; NCI-H2009 cell line; 3-day CTG assay; read-out: Absolute IC50
Description: as §1, §2, §3, §4, §5, §6, §7

NCI-H1299 = settings: Homo sapiens, 72 h; NCI-H1299 cell line; 3-day CTG assay; read-out: Absolute IC50
Description: as §1, §2, §3, §4, §5, §6, §7

SW480 = settings: Homo sapiens, 72 h; SW480 cell line; 3-day CTG assay; read-out: Absolute IC50
Description: as §1, §2, §3, §4, §5, §6, §7

NCI-H1155 = settings: Homo sapiens, 72 h; NCI-H1155 cell line; 3-day CTG assay; read-out: Absolute IC50
Description: as §1, §2, §3, §4, §5, §6, §7

NCI-H441 = settings: Homo sapiens, 72 h; NCI-H441 cell line; 3-day CTG assay; read-out: Absolute IC50
Description: as §1, §2, §3, §4, §5, §6, §7

A2058 = settings: Homo sapiens, 72 h; A2058 cell line; 3-day CTG assay; read-out: Absolute IC50
Description: as §1, §2, §3, §4, §5, §6, §7

Row | IC50 (NCI-H1792) [nM] | IC50 (LoVo) [nM] | IC50 (NCI-H1651) [nM] | IC50 (HepG2) [nM] | IC50 (PC-3) [nM] | IC50 (HCT-8) [nM] | IC50 (SK-LU-1) [nM] | IC50 (NCI-H2227) [nM] | IC50 (HT1376) [nM] | IC50 (Hep3B) [nM] | IC50 (NCI-H2009) [nM] | IC50 (NCI-H1299) [nM] | IC50 (SW480) [nM] | IC50 (NCI-H1155) [nM] | IC50 (NCI-H441) [nM] | SMILES | IC50 (A2058) [nM]
1 | 4700 | 410 | 48800 | 130 | 14300 | 1270 | 4690 | 28700 | 4270 | 250 | 4360 |  |  |  |  | O=C(Nc1ccc2[nH]nc(-c3ccncc3)c2c1)[C@@H]1CCN(CC(=O)N2CCN(c3ccc(-c4ncccn4)cc3)CC2)C1 [SCH772984, (R)-1-(2-oxo-2-(4-(4-(pyrimidin-2-yl)phenyl)piperazin-1-yl)ethyl)-N-(3-(pyridin-4-yl)-1H-indazol-5-yl)pyrrolidine-3-carboxamide] | 
2 | 160 | 110 |  |  |  | 50 |  |  |  | 50 | 410 | 910 | 6650 | 636000 | 325000 | CC(=O)Nc1cccc(-n2c(=O)n(C3CC3)c(=O)c3c(Nc4ccc(I)cc4F)n(C)c(=O)c(C)c32)c1 [Trametinib, N-(3-{3-Cyclopropyl-5-[(2-fluoro-4-iodophenyl)amino]-6,8-dimethyl-2,4,7-trioxo-3,4,6,7-tetrahydropyrido[4,3-d]pyrimidin-1(2H)-yl}phenyl)acetamide] | 120
